Test results: patent publication US8071744B2, “TRP/HIS exchange and kynurenin induced TRP transport” (Carnegie Institution of Washington, priority 2007, dated 2011)

Legend:
[1] = system: COS-7 cells; assay: Ratio imaging of intracellular tryptophan in perfused COS-7 cells expressing FLIPW-CTYT (uptake and exchange); type: cell-based, monkey; conditions: for effect on the uptake rate of 100 μM L-tryptophan: inhibitors at 5 mM; for tryptophan export from tryptophan-preloaded cells (counterexchange): extracellular amino acids at 100 μM, DL-HK 200-1000 μM
Experimental: (§1) Tissue culture and transfection. For cytosolic expression in COS-7 cells, the gene encoding CTYT was amplified by PCR with primers encoding unique BamHI and EcoRI restriction sites at the 5′ and 3′ end, respectively, and cloned into BamHI/EcoRI digested peDNA3.1(+) vector (Invitrogen), resulting in plasmid pTK222. COS-7 cells were grown in Dulbecco's modified Eagle's medium (high glucose; DMEM, Gibco) with 10% fetal calf serum and 50 μg; ml penicillin and 50 μg/ml streptomycin (Gibco). Cells were cultured at 37° C. and 5% CO2. For imaging, cells were cultured in 8-well LabTekII German tissue culture glass slides (Nalg Nunc International) and transiently transfected at 50-70% confluence using Lipofectamine 2000 Reagent (Invitrogen) in Opti-MEM I reduced serum medium (Gibco): After transfection, cells were cultured for 16 hours in Opti-MEM followed by 3 hours in DMEM prior to imaging.
Imaging. Ratio imaging was performed on an inverted fluorescence microscope (DM IRE2, Leica) with a Quant EM digital camera (Photometrics) and 20× oil immersion, 63× water immersion lenses (HC PL APO 20×/0.7 or HCX PL APO, Leica, Germany). Dual emission intensity ratios were simultaneously recorded using a DualView with an OI-5-EM filter set (eCFP 480/30; eYFP 535/40; Optical 17 Insights, USA) and Metafluor 6.3r6 software (Molecular Devices, USA). A Sutter Instruments Lambda DG4 provided excitation. Images were acquired within the linear detection range of the camera and exposure times varied between 50 to 200 ms, depending on the expression level, with software binning between 2 and 3. […] Cells were perfused with Tyrode's buffer at flow rates of 1.0 ml/min in a vacuum chamber with a total volume of 0.1 ml. Inhibitors BCH and MeIAB were used at 5 mM concentrations. For determination of the substrate specificity of the tryptophan exchange, all 20 amino acids were tested at 100 μM concentrations.

[2] = biological target: T1, FLIPW-CTY (Escherichia coli, UniProt P0A881); assay: In vitro FRET titration of FLIPW-CTY with tryptophan substrates; type: binding, E. coli
T1 construct: fused on or other part: eCFP at the N-terminus and Venus (YFP variant) at the C-terminus as FRET reporter handles; pRSETb vector leader; Gateway att-derived linkers
Experimental: (§2) In vitro characterization of FLIPW and FLIPpur sensors. […] The eCFP emission used for the ratio calculation was determined at 485 nm. Protein was diluted to give Venus/eYFP readouts of 20,000 to 30,000 at a manual gain between 70-75. By using the change in FRET ratio upon binding of ligand, affinity constants (Kd) were determined by fitting the titration curves to a single-site-binding isotherm: R=Rapo+(Rsat−Rapo)·(n·[L])/(Kd+[L]) with [L], ligand concentration; n, number of equal binding sites; R, ratio; Rapo, ratio in the absence of ligand; and Rsat, ratio at saturation with ligand. Three independent protein preparations were analyzed and each protein preparation was analyzed in triplicate.

[3] = biological target: unmodified TrpR (Escherichia coli, UniProt P0A881); conditions: cited from earlier work
[4] = biological target: T2, FLIPW-CTYT (Escherichia coli, UniProt P0A881); assay: In vitro FRET titration of FLIPW-CTYT with tryptophan substrates and kynurenines; type: binding, E. coli; conditions: data not shown
T2 construct: Venus (YFP variant); made in house; host or cells: E. coli BL21(DE3)gold
Experimental: as §2

[5] = biological target: LAT1 (Homo sapiens, UniProt Q01650); conditions: oocytes; sum of free, incorporated and degraded tryptophan; cited from earlier work
Chain of LAT1 (Q01650 whole entry): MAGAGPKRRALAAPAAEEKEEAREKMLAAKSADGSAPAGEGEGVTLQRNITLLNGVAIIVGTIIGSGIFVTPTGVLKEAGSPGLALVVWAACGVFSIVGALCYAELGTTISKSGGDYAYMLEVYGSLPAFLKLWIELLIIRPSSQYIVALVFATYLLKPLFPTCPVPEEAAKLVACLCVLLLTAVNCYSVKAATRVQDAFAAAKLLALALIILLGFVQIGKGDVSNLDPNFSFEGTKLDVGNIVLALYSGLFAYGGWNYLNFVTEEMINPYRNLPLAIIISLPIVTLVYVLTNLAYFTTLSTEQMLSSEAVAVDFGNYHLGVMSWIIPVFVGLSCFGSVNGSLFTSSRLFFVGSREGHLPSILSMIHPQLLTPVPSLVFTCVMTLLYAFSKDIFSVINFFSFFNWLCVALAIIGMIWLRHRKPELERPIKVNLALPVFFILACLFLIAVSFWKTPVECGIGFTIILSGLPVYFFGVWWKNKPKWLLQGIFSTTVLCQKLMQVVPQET

[6] = system: COS-7 cells; conditions: read-out: apparent KM for combined transport and metabolism; 96-well microplate, Michaelis-Menten fit of FRET increase rate, 0.05-25 μM L-tryptophan
Experimental: as §1

[7] = system: KB cells; assay: FRET imaging of intracellular tryptophan in interferon-gamma treated KB cells; type: cell-based, human; conditions: IFNγ 500 U/ml, perfusion with Tyrode's buffer
Experimental: It was also assessed whether affecting the metabolism of tryptophan could be monitored using the FRET nanosensors. The induction of indoleamine 2,3-dioxygenase (IDO) by interferon-gamma in KB cells has been described by Ozaki et al. (Proc. Natl. Acad. Sci. U.S.A. (1988)85: 1242-1246). Indoleamine 2,3-dioxygenase degrades tryptophan to formyl-kynurenine in the cytosol. Accordingly, KB cells were seeded at 10%, 25%, 50% dilution (derived from a suspension that was from ˜90% confluent plate). Interferon gamma (IFNγ) was added at 500 and 1000 U/ml. KB cells used as a control (i.e. no IFNγ) were seeded at 10% dilution only. KB cells were incubated in growth medium (MEM-alpha, 10° A FBS (fetal bovine serum), penicillin/streptomycin) and then in OPTIMEM for 4 days prior to imaging. Cells were transfected (in OPTIMEM) with the pTK222c construct 1 day prior to imaging. IFNγ was maintained during transfection in OPTIMEM. Three hours prior to imaging, the cells were incubated in growth medium (containing IFNγ in the respective cultures). After three hours, the growth medium was exchanged with Tyrode's solution and the cells were kept in incubation chamber until analysis. The cells were perfused with 1 μM, 5 μM, 50 μM, and 100 μM L-tryptophan in Tyrode's solution.

In the case of `CNC(C)(C)C(=O)O`, the “effect on the uptake rate of 100 μM L-tryptophan” value [1] is reported as “did not decrease uptake rates”.

In the case of `NC1(C(=O)O)CC2CCC1C2` (stereo not drawn) [BCH, 2-aminobicyclo-(2,2,1)-heptane-2-carboxylic acid], the “effect on the uptake rate of 100 μM L-tryptophan” value [1] is reported as “decreased the uptake of tryptophan”.

In the case of `N[C@H](Cc1c[nH]c2ccccc12)C(=O)O` [D-tryptophan], the “concentration for decrease of FRET ratio relative to L-tryptophan” value [2] is given as “about 5 fold” and the “reduced affinity of unmodified TrpR compared to L-tryptophan” value [3] is given as 20 fold.

For `Nc1c(O)cccc1C(=O)O` [HAA, hydroxy-anthranilic acid], the “FLIPW-CTYT response or interference with tryptophan binding in vitro” value (“FLIPW-CTYT response or interference” below) [4] was “did not result in a FLIPW-CTYT response or interfere with tryptophan binding to the sensor” and the “tryptophan export from tryptophan-preloaded cells (counterexchange)” value (“tryptophan export … (counterexchange)” for short) [1] was “did not result in tryptophan export”.

In the case of `Nc1c(O)cccc1C(=O)CC(N)C(=O)O` (stereo not drawn) [HK, 3-hydroxy-kynurenine], the “FLIPW-CTYT response or interference” value [4] is reported as “did not result in a FLIPW-CTYT response or interfere with tryptophan binding to the sensor” and the “tryptophan export … (counterexchange)” value [1] is reported as “resulted in reduction of the fluorophore emission ratios in the COS-7 cells, evidencing tryptophan export”.

In the case of `Nc1ccccc1C(=O)CC(N)C(=O)O` (stereo not drawn) [K, kynurenine], the “FLIPW-CTYT response or interference” value [4] is reported as “did not result in a FLIPW-CTYT response or interfere with tryptophan binding to the sensor” and the “tryptophan export … (counterexchange)” value [1] is reported as “resulted in reduction of the fluorophore emission ratios in the COS-7 cells, evidencing tryptophan export”.

For `N[C@@H](Cc1c[nH]c2ccccc12)C(=O)O` [L-tryptophan], the “affinity of LAT1 for tryptophan uptake” value [5] is given as 21.4 µM, the Km [6] is given as 0.88 ± 0.27 µM and the “affinity of the cells for combined uptake and metabolism of tryptophan” value ([1]; perfusion imaging, Michaelis-Menten fit) is given as 2.6 ± 1.1 µM.

With `N[C@@H](Cc1c[nH]cn1)C(=O)O` [histidine, L-histidine] the “tryptophan export … (counterexchange)” value [1] was “able to promote tryptophan export”.

In the case of `CC[C@H](C)[C@H](N)C(=O)O` [isoleucine], the “tryptophan export … (counterexchange)” value [1] is reported as “able to promote tryptophan export”.

With `CC(C)C[C@H](N)C(=O)O` [leucine] the “tryptophan export … (counterexchange)” value [1] was “able to promote tryptophan export”.

In the case of `CSCC[C@H](N)C(=O)O` [methionine], the “tryptophan export … (counterexchange)” value [1] is reported as “able to promote tryptophan export”.

With `N[C@@H](Cc1ccccc1)C(=O)O` [phenylalanine] the “tryptophan export … (counterexchange)” value [1] was “able to promote tryptophan export”.

In the case of `N[C@@H](Cc1ccc(O)cc1)C(=O)O` [tyrosine], the “tryptophan export … (counterexchange)” value [1] is reported as “able to promote tryptophan export”.

With `CC(C)[C@H](N)C(=O)O` [valine] the “tryptophan export … (counterexchange)” value [1] was “able to promote tryptophan export”.

B1: IFNγ: cytokine interferon gamma, induces indoleamine 2,3-dioxygenase in KB cells (protein, UniProt P01579 24-161, looked up)
Interferon gamma: QDPYVKEAENLKKYFNAGHSDVADNGTLFLGILKNWKEESDRKIMQSQIVSFYFKLFKNFKDDQSIQKSVETIKEDMNVKFFNSNKKKRDDFEKLTNYSVTDLNVQRKAIHELIQVMAELSPAAKTGKRKRSQMLFRG
In the case of B1, the “effect on intracellular tryptophan concentration” value [7] is reported as “lower the intracellular tryptophan concentration”.
